Read-outs that look alike come from different tables or passages of the source.
Experiments:
rat duodenum = settings: for inhibition of incorporation of radiolabeled heme into the animals: 4 animals (FIG. 8)
Text: In this assay, Wistar rats were first anesthetized with pentobarbital. Wistar rats are from a strain originally developed at the Wistar Institute and commonly used all over the world for research. Following anesthesia, a midline incision was made in each of the rats. The duodenum of each animal was isolated between the pylorus and the ligament of Trietz by umbilical tape. The bile duct of each animal was then identified and ligated. Following this, a syringe was passed through the pylorus of each animal, and one ml of radiolabeled heme solution was introduced into the duodenum. The heme solutions used contained either only heme, or additionally included an appropriate concentration of an inhibitor to be evaluated.
Following introduction of the heme or heme/inhibitor solution, the duodenal loop of each animal was tied off. Heme absorption was allowed to continue for a period of 10 minutes. Following this absorption period, the duodenal loop of each rat was removed and the animal was killed. The rat carcass was counted in a whole body counter to determine the amount of radiolabeled heme isotope absorbed into the body from the duodenum.
The Wistar rats were divided into three groups of 4 animals each. Group 1 was used as a control group.
In this experiment, 5 animals were utilized in each of the control and testing groups. The incubation time period was extended to be fifteen minutes. […] The points seen in FIG. 9 represent the measurements obtained individual rats, while the shaded bars represent the mean value for each group of animals.

K562 cells = system: K562 cells
Text: In a next set of experiments, K562 cells were used to test toxicity of the porphyrins of the invention. K562 cells are erythroleukemia cells from a cell line derived from a chronic myeloid leukemia patient in blast crisis. K562 cells were selected for this testing based on their ability to grow in suspension. This characteristic renders cell counting more reliable.

[1] = 50 micromolar in duodenal loop, 15 minutes
Protocol: Subsequently, cardiac punctures were performed on the rats, and between 0.45 and 1.3 ml of blood were collected from each. The plasma of the blood samples was separated and precipitated overnight with 10% trichloroacetic acid.

IEC-6 cells [2] = system: IEC-6 cells
IEC-6 cells [3] = assay: Inhibition of in vitro uptake of radiolabeled iron from heme in IEC-6 cells
Protocol: In a first assay, confluent monolayers of IEC-6 cells were incubated with radioactive iron-labeled heme. […] In this assay, the heme had been previously solubilized in taurodeoxycholate micelles. Twelve-well tissue culture plates were used with 1 ml of phosphate-buffered saline (or “PBS”) containing Ca, Mg and glucose. Cells were incubated with the heme solution and a designated inhibitor for times indicated at a temperature of 37° C.
After incubation, the cells were washed with 1 ml of the same buffer at 4° C. three times. The cells were then solubilized by the addition of 1 ml of water and sonicated for 10 minutes in a Branson sonicator. The cells were removed by titration and transferred to 75 ml tubes. Subsequently, the radioactivity of the cells was determined using a gamma counter.
For an initial screen, each compound was added at a concentration of 800 micromolar, and given a timed uptake period of over 60 minutes. […] The concentration of inhibitor required to get a 50% decrease in heme uptake inhibition counts was then determined.

[4] = 800 μM
Protocol: TMP (free base porphyrin) was used at 160 and 800 μM concentrations in the taurodeoxycholate-solubilized heme solution.

[5] = one of two cell lines (summary)
[6] = read-out: concentration giving about 50% inhibition of heme iron uptake, titration with increasing amounts of inhibitor, uptake determined after 30 minutes

## C[n+]1ccc(-c2c3nc(c(-c4cc[n+](C)cc4)c4ccc([n-]4)c(-c4cc[n+](C)cc4)c4nc(c(-c5cc[n+](C)cc5)c5ccc2[n-]5)C=C4)C=C3)cc1.[Cr+3] [Cr-TMP, Cr (III) meso-tetra(N-methyl-4-pyridyl) porphine]
Rat duodenum; 50 μM, 10 minutes
  inhibition of incorporation of radiolabeled heme into the animals: almost complete inhibition
Rat duodenum; 200 μM, 10 minutes
  inhibition of incorporation of radiolabeled heme into the animals: almost complete inhibition
Rat duodenum; about 50 μM, 15 minutes (FIG. 9)
  in vivo inhibition of heme-iron uptake (conclusion): feasible in vivo
K562 cells; 50 micromolar in growth media (FIG. 10)
  growth rate of the cells: not decreased
K562 cells; concentrations above 50 micromolar, growth slowed, cells remained viable
  cell growth at higher concentrations: Some inhibition of cell growth
K562 cells; [5]
  toxicity at a high concentration relative to contemplated therapeutic dosage: no toxicity
K562 cells; two weeks of exposure
  toxicity after prolonged exposure: No toxicity
[1]
  absorption across the intestinal wall: essentially no absorption
  plasma level, bounded by limit of sensitivity of the measurement: < 40 nM
[1]; 447 nm
  difference in plasma absorbance between control and treated groups: no difference
IEC-6 cells [2]; 50 μM, up to 7 days' exposure (FIG. 11)
  growth rate or extent: no decrease in growth rate or extent
IEC-6 cells [2]; day 4 (FIG. 12)
  concentration up to which no toxicity was observed: about 100 μM
IEC-6 cells [2]; [5]
  toxicity at a high concentration relative to contemplated therapeutic dosage: no toxicity
IEC-6 cells [3]
  concentration range in which active as inhibitor: low micromolar range
IEC-6 cells [3]; 800 μM, 60 minutes
  toxicity to the cell monolayer under the inverted microscope: No toxicity to the cell monolayer was observed
IEC-6 cells [3]; 800 μM, over 60 minutes, 37 degrees (FIG. 3)
  inhibition of heme iron uptake, timed uptake: inhibition to approximately background
IEC-6 cells [3]; metal chelates of TMP
  inhibitory ability compared with the free base porphyrin: effective to still another order of magnitude
IEC-6 cells [3]; [6]
  IC50: ~4 µM

## C[n+]1ccc(-c2c3nc(c(-c4cc[n+](C)cc4)c4ccc([nH]4)c(-c4cc[n+](C)cc4)c4nc(c(-c5cc[n+](C)cc5)c5ccc2[nH]5)C=C4)C=C3)cc1 [TMP, meso-tetra(N-methyl-4-pyridyl) porphine]
Rat duodenum; 800 μM, 10 minutes
  variation of inhibition in the group of animals: considerable variation in inhibition
Rat duodenum; 160 and 800 μM in heme solution, 10 minutes (FIG. 7)
  inhibition of incorporation of iron from heme into the body of the animal: inhibition of iron uptake was observed
[4]
  precipitation in the heme solution: slight precipitate
IEC-6 cells [3]; read-out: concentration at which heme uptake is inhibited (as seen in FIGS. 2 and 4), summary of Tables 1 and 2
  IC50: ~750 µM
IEC-6 cells [3]; [6]
  IC50: ~100 µM
